Like-named read-outs stand apart in the source and are kept apart here.
How the values were obtained:
[1] = tested on: tubulin; assay: Induction/enhancement of tubulin assembly (Lin, et al., 1996); type: biochemical; details: 10 μM tubulin, 0.4M monosodium glutamate, 30 min at room temperature
[2] = tested on: NCI/ADR-RES; assay: Cytotoxicity, standard NCI assay with sulforhodamine B, 96 h; type: cell-based, human; details: read-out: Cytotoxicity (nM, ± SD) NCI/ADR-RES
[3] = tested on: MDA-MB-435; assay: as above; type: cell-based, human; details: read-out: Cytotoxicity (nM, ± SD) MDA-MB-435
[4] = tested on: SNB-75; assay: as above; type: cell-based, human; details: read-out: Cytotoxicity (nM, ± SD) SNB-75
[5] = tested on: MCF-7; assay: as above; details: for IC50: read-out: Cytotoxicity (nM, ± SD) MCF-7; for GI50: read-out: cytotoxicity (GI50, nM ± SD) MCF-7
[6] = tested on: OVCAR-8; assay: as above; details: for IC50: read-out: Cytotoxicity (nM, ± SD) OVCAR-8; for GI50: read-out: cytotoxicity (GI50, nM ± SD) OVCAR-8
[7] = Table 3, read-out: Enhancement of tubulin assembly (EC50)
[8] = Homo sapiens, NCI/ADR-RES, 96 h
[9] = Table 2, read-out: induction of tubulin assembly (EC50, μM ± SD)
[10] = OVCAR-8, 96 h at 37° C., Table 2
[11] = NCI/ADR-RES (overexpresses P-glycoprotein), IC50, 96 h at 37° C., Table 3
[12] = MDA-MB-435, IC50, 96 h at 37° C., Table 3
[13] = SNB-75, IC50, 96 h at 37° C., Table 3
[14] = MCF-7, IC50, 96 h at 37° C., Table 3
[15] = OVCAR-8, IC50, 96 h at 37° C., Table 3

Row | SMILES | EC50 [1, 7] | IC50 [2, 8] | IC50 ([3]; Homo sapiens, MDA-MB-435, 96 h) | IC50 ([4]; Homo sapiens, SNB-75, 96 h) | IC50 ([5]; Homo sapiens, MCF7, 96 h) | IC50 ([6]; Homo sapiens, OVCAR-8, 96 h) | EC50 [1, 9] | further results
1 | C/C(=C\c1nc2ccccc2s1)[C@@H]1C[C@@H]2N(CCO)[C@]2(C)CCC[C@H](C)[C@H](O)[C@@H](C)C(=O)C(C)(C)[C@@H](O)CC(=O)O1 (stereo partly shown) [Compound 74] | 7.9 ± 1 µM | 630 ± 80 nM | 3.5 ± 0.3 nM | 12 ± 3 nM | 11 ± 1 nM | 23 ± 7 nM |  | 
2 | C/C1=C/C[C@@H](/C(C)=C/c2csc(C)n2)OC(=O)C[C@H](O)C(C)(C)C(=O)[C@H](C)[C@@H](O)[C@@H](C)CCC1 [EpoD, epothilone D, reference compound] |  |  |  |  |  |  | 18 µM | GI50 ([5]; MCF-7, 96 h at 37° C., Table 2): 14 ± 1 nM; GI50 [6, 10]: 13 ± 4 nM
3 | C/C(=C\c1csc(C)n1)[C@@H]1C[C@@H]2N(CCO)[C@]2(C)CCC[C@H](C)[C@H](O)[C@@H](C)C(=O)C(C)(C)[C@@H](O)CC(=O)O1 (stereo partly shown) [Compound 71] | 18.2 µM | 55 ± 20 nM |  |  | 3 ± 1 nM | 4.5 ± 0.7 nM |  | 
4 | C/C(=C\c1csc(CCN)n1)[C@@H]1C[C@@H]2N(CCO)[C@]2(C)CCC[C@H](C)[C@H](O)[C@@H](C)C(=O)C(C)(C)[C@@H](O)CC(=O)O1 (stereo partly shown) [Compound 76] | 9.1 ± 1 µM | 45 ± 6 nM | 3.8 ± 0.7 nM | 50 ± 10 nM | 15 ± 3 nM | 8.6 ± 1 nM |  | 
5 | C/C(=C\c1csc(CN)n1)[C@@H]1C[C@@H]2N(CCO)[C@]2(C)CCC[C@H](C)[C@H](O)[C@@H](C)C(=O)C(C)(C)[C@@H](O)CC(=O)O1 (stereo partly shown) [Compound 75] | > 60 µM | 2800 nM | 20 ± 3 nM | 130 ± 20 nM | 65 ± 7 nM | 93 ± 20 nM |  | 
6 | CC(=O)O[C@H]1C(=O)[C@@]2(C)[C@H]([C@H](OC(=O)c3ccccc3)[C@]3(O)C[C@H](OC(=O)[C@H](O)[C@@H](NC(=O)c4ccccc4)c4ccccc4)C(C)=C1C3(C)C)[C@]1(OC(C)=O)CO[C@@H]1C[C@@H]2O [PTX, paclitaxel, reference compound] | 5 ± 1 µM |  |  |  | 7.8 ± 2 nM | 10 ± 2 nM |  | IC50 ([2]; Homo sapiens, NCI/ADR-RES (overexpresses P-glycoprotein), IC50, 96 h at 37° C., Table 3): 4200 nM; IC50 ([3]; Homo sapiens, MDA-MB-435, IC50, 96 h at 37° C., Table 3): 4 ± 1 nM; IC50 ([4]; Homo sapiens, SNB-75, IC50, 96 h at 37° C., Table 3): 15 nM; GI50 ([5]; Homo sapiens, MCF7, 96 h): 8.5 nM; GI50 ([6]; Homo sapiens, OVCAR-8, 96 h): 6.5 ± 2 nM
7 | CSc1nc(/C=C(\C)[C@@H]2C[C@@H]3N(CC4CC4)[C@]3(C)CCC[C@H](C)[C@H](O)[C@@H](C)C(=O)C(C)(C)[C@@H](O)CC(=O)O2)cs1 (stereo partly shown) [Compound 81] | 5.1 ± 0.4 µM | 18 ± 4 nM | 9.5 ± 2 nM | 16 ± 3 nM | 18 ± 3 nM | 15 ± 2 nM |  | 
8 | C/C(=C\c1ccn(-c2ccc(N)cc2C(F)(F)F)n1)[C@@H]1C[C@@H]2O[C@]2(C)CCC[C@H](C)[C@H](O)[C@@H](C)C(=O)C(C)(C)[C@@H](O)CC(=O)O1 [Compound 13] |  |  |  |  |  |  | > 40 µM | GI50 ([5]; Homo sapiens, MCF7, 96 h): 9 ± 1 nM; GI50 ([6]; Homo sapiens, OVCAR-8, 96 h): 35 ± 5 nM
9 | C/C(=C\c1csc(C)n1)[C@@H]1C[C@@H]2N[C@]2(C)CCC[C@H](C)[C@H](O)[C@@H](C)C(=O)C(C)(C)[C@@H](O)CC(=O)O1 [Compound 70] | 19 µM | 35 ± 7 nM |  |  | 2 nM | 1.5 ± 0.7 nM |  | 
10 | CSc1nc(/C=C(\C)[C@@H]2C[C@@H]3N(CCN)[C@]3(C)CCC[C@H](C)[C@H](O)[C@@H](C)C(=O)C(C)(C)[C@@H](O)CC(=O)O2)cs1 (stereo partly shown) [Compound 79] | 6.1 ± 0.1 µM | 70 ± 10 nM | 15 ± 4 nM | 23 ± 6 nM | 14 ± 2 nM | 63 ± 3 nM |  | 
11 | C/C(=C\c1csc(C)n1)[C@@H]1C[C@@H]2O[C@@H]2CCC[C@H](C)[C@H](O)[C@@H](C)C(=O)C(C)(C)[C@@H](O)CC(=O)O1 [EpoA, epothilone A] | 14 ± 3 µM |  |  |  |  |  | 16 ± 2 µM | IC50 [2, 11]: 35 ± 5 nM; IC50 [3, 12]: 15 ± 2 nM; IC50 [4, 13]: 14 ± 3 nM; IC50 [5, 14]: 14 ± 4 nM; GI50 ([5]; MCF-7, 96 h at 37° C., Table 2): 10 ± 2 nM; IC50 [6, 15]: 20 ± 5 nM; GI50 [6, 10]: 11 ± 2 nM
12 | C/C(=C\c1ccccn1)[C@@H]1C[C@@H]2N(CCO)[C@]2(C)CCC[C@H](C)[C@H](O)[C@@H](C)C(=O)C(C)(C)[C@@H](O)CC(=O)O1 (stereo partly shown) [Compound 73] | > 60 µM | 4000 nM | 30 ± 4 nM | 98 ± 10 nM | 250 ± 40 nM | 170 ± 20 nM |  | 
13 | C/C(=C\c1csc(N)n1)[C@@H]1C[C@@H]2N(CCO)[C@]2(C)CCC[C@H](C)[C@H](O)[C@@H](C)C(=O)C(C)(C)[C@@H](O)CC(=O)O1 (stereo partly shown) [Compound 83] | 13 ± 0.4 µM | 3800 nM | 220 ± 30 nM | 280 ± 30 nM | 330 ± 40 nM | 290 ± 10 nM |  | 
14 | CSc1nc(/C=C(\C)[C@@H]2C[C@@H]3N[C@]3(C)CCC[C@H](C)[C@H](O)[C@@H](C)C(=O)C(C)(C)[C@@H](O)CC(=O)O2)cs1 [Compound 77] | 5 ± 1 µM | 8.8 ± 1 nM | 4.5 ± 0.5 nM | 11 ± 3 nM | 4 ± 1 nM | 16 ± 4 nM |  | 
15 | CSc1cc(/C=C(\C)[C@@H]2C[C@@H]3N(CCO)[C@]3(C)CCC[C@H](C)[C@H](O)[C@@H](C)C(=O)C(C)(C)[C@@H](O)CC(=O)O2)nn1C (stereo partly shown) [Compound 82] | 4.6 ± 0.9 µM | 7.5 ± 2 nM | 12 ± 2 nM | 10 ± 2 nM | 10 ± 1 nM | 78 ± 4 nM |  | 
16 | CSc1nc(/C=C(\C)[C@@H]2C[C@@H]3N(CCO)[C@]3(C)CCC[C@H](C)[C@H](O)[C@@H](C)C(=O)C(C)(C)[C@@H](O)CC(=O)O2)cs1 (stereo partly shown) [Compound 78] | 14 ± 3 µM | 55 ± 7 nM | 42 ± 5 nM | 60 ± 10 nM | 28 ± 6 nM | 75 ± 10 nM |  | 
17 | C/C(=C\c1csc(C)n1)[C@@H]1C/C=C\CCC[C@H](C)[C@H](O)[C@@H](C)C(=O)C(C)(C)[C@@H](O)CC(=O)O1 [EpoC, epothilone C, reference compound] |  |  |  |  |  |  | 18 µM | GI50 ([5]; MCF-7, 96 h at 37° C., Table 2): 70 nM; GI50 [6, 10]: 110 ± 7 nM
18 | CSc1nc(/C=C(\C)[C@@H]2C[C@@H]3N(CCN=[N+]=[N-])[C@]3(C)CCC[C@H](C)[C@H](O)[C@@H](C)C(=O)C(C)(C)[C@@H](O)CC(=O)O2)cs1 (stereo partly shown) [Compound 80] | 5.4 ± 0.6 µM | 3.2 ± 0.8 nM | 7.3 ± 2 nM | 22 ± 3 nM | 13 ± 3 nM | 15 nM |  | 
19 | C/C(=C\c1csc(C)n1)[C@@H]1C[C@@H]2O[C@]2(C)CCC[C@H](C)[C@H](O)[C@@H](C)C(=O)C(C)(C)[C@@H](O)CC(=O)O1 [EpoB, epothilone B, reference compound] | […] |  |  |  |  |  | […] | IC50 [2, 11]: 19 ± 4 nM; IC50 [3, 12]: 5.3 ± 0.7 nM; IC50 [4, 13]: 6.5 ± 2 nM; IC50 [5, 14]: 9.2 ± 2 nM; GI50 ([5]; MCF-7, 96 h at 37° C., Table 2): 5.5 nM; IC50 [6, 15]: 11 ± 3 nM; GI50 [6, 10]: 3.5 ± 0.7 nM
20 | C/C(=C\c1csc(C)n1)[C@@H]1C[C@@H]2O[C@]2(C)CCC[C@H](C)[C@H](O)[C@@H](C)C(=O)C(C)(C)[C@@H](O)CC(=O)N1 [Ixab, ixabepilone, reference compound] |  |  |  |  |  |  | 4.5 ± 0.7 µM | GI50 ([5]; Homo sapiens, MCF7, 96 h): 7 ± 1 nM; GI50 ([6]; Homo sapiens, OVCAR-8, 96 h): 35 ± 10 nM

Source: US10874646B2, “Epothilone analogs, methods of synthesis, methods of treatment, and drug conjugates thereof” (WILLIAM MARSH RICE UNIVERSITY, priority 2015, dated 2020)
